Data: US10857127B2, “Vaginal delivery systems containing selective estrogen receptor modulator (SERM) and uses thereof” (Azure Biotech, Inc., priority 2016, dated 2020)

Columns and labels:
[1] = hydroperoxides, cited from earlier work; for Average HPO: average of lots tested; for High HPO Lot: highest lot; for Low HPO Lot: lowest lot
[2] = Dissolution studies of Lasofoxifene in organic solvents and surfactants; format: physicochemical; conditions: visual examination
Description: The solubility of Lasofoxifene was investigated by screening various organic solvents and surfactants in increasing concentrations. The term “formulation” may refer to a pharmaceutical composition comprising […] pharmaceutically acceptable excipients.
First, 1 mg of Lasofoxifene was weighed into Eppendorf vessels and 500 μl of organic solvents and surfactants as listed in Table 20 were added. In cases of insufficient dissolution of the API, samples were treated with ultrasound for 30 min and, if necessary, heated to 50° C. while shaking (300 rpm). Afterwards, samples were examined visually regarding drug dissolution. In case of entire dissolution, the experiment was repeated with increasing drug concentrations until maximum dissolution was achieved. In addition, further organic solvents and surfactants were tested.

[3] = as above; format: physicochemical; conditions: Lasofoxifene 1 mg/ml in the labelled solvent/surfactant; visual examination
[4] = Peroxide value of excipients at the opening of the container; format: physicochemical; conditions: measured after opening the container

For `OC[C@H]1O[C@@H](O[C@H]2[C@H](O)[C@@H](O)C(O)O[C@@H]2CO)[C@H](O)[C@@H](O)[C@H]1O` (some centres unmarked) [Lactose], the “Average HPO” value [1] is listed as less than 10 nmol/g, the “High HPO Lot” value [1] is listed as 10 nmol/g and the “Low HPO Lot” value [1] is listed as less than 10 nmol/g.

In the case of `OC[C@@H](O)[C@@H](O)[C@H](O)[C@H](O)CO` [Mannitol], the “Average HPO” value [1] is given as less than 10 nmol/g, the “High HPO Lot” value [1] is given as less than 10 nmol/g and the “Low HPO Lot” value [1] is given as less than 10 nmol/g.

In the case of `OC[C@H]1O[C@@](CO)(O[C@H]2O[C@H](CO)[C@@H](O)[C@H](O)[C@H]2O)[C@@H](O)[C@@H]1O` [Sucrose], the “Average HPO” value [1] is given as less than 10 nmol/g, the “High HPO Lot” value [1] is given as 20 nmol/g and the “Low HPO Lot” value [1] is given as less than 10 nmol/g.

For Tetraglycol [Tetraglycol (TG)], the “Dissolution of Lasofoxifene in various organic solvents and surfactants, 2 mg/ml” value ([2]; Lasofoxifene 2 mg/ml in the labelled solvent/surfactant) was “dissolved”, the “Dissolution of Lasofoxifene in various organic solvents and surfactants, 3 mg/ml” value ([2]; Lasofoxifene 3 mg/ml in the labelled solvent/surfactant) was “partially” and the “Dissolution of Lasofoxifene in various organic solvents and surfactants, 6 mg/ml” value ([2]; Lasofoxifene 6 mg/ml in the labelled solvent/surfactant) was “not dissolved”. For the same compound, the “Dissolution of Lasofoxifene in various organic solvents and surfactants, 1 mg/ml” value [3] was “dissolved” and the Peroxide value [4] was 1.55 µmol.
